Calls of active or inactive are those of the source. The calls are words filed in the database; no cut-off is given here.
Columns and labels:
[1] = target: T1, Ras-related C3 botulinum toxin substrate 1/T-lymphoma invasion and metastasis-inducing protein 1 (Homo sapiens) (UniProt P63000+Q13009); test: Inhibition of Rac1-Tiam1 protein-protein interaction in human A617 cells assessed as reduction in intracellular Rac1-GTP levels at 10 uM after 4 hrs by G-LISA assay relative to control; format: cell-based
[2] = target: T1, Ras-related C3 botulinum toxin substrate 1/T-lymphoma invasion and metastasis-inducing protein 1 (Homo sapiens); test: Inhibition of Rac1-Tiam1 protein-protein interaction in human A617 cells assessed as reduction in intracellular Rac1-GTP levels at 1 to 10 uM after 4 hrs by G-LISA assay; format: cell-based

## CCOC(=O)C1(N)C2CC(CC2c2cccc(Nc3ccc(N)cc3)c2)C1Sc1ccccc1 (racemic)
[1]
  inhibition: 17.2%
[2]
  inhibition: inactive
